Measured values published in patent publication US9895377B2, “Solid forms of tyrosine kinase inhibitors, process for the preparation and their pharmaceutical composition thereof” (LAURUS LABS LIMITED, priority 2012, dated 2018).

Assay: delta pKa difference between tyrosine kinase inhibitor and anti-oxidative acids
Type: physicochemical
Details: between the tyrosine kinase inhibitor and anti-oxidative acids; more than 3 = salt, less than 3 = co-crystal (FDA draft guidelines)

| delta pKa difference | SMILES |
| --- | --- |
| less than 3 | COc1cc2ncnc(Nc3ccc(F)c(Cl)c3)c2cc1OCCCN1CCOCC1 [gefitinib, Gefitinib] |
| more than 3 | Cc1ccc(NC(=O)c2ccc(CN3CCN(C)CC3)cc2)cc1Nc1nccc(-c2cccnc2)n1 [imatinib, Imatinib] |
